From patent US8273774B2, “Phenoxypyridinylamide compounds” (AstraZeneca AB, priority 2008, dated 2012)

Target: recombinant Human Phosphodiesterase B2 (PDE4B2) (Homo sapiens, UniProt Q07343)
Assay: Human Phosphodiesterase B2 Radiometric Assay
Format: biochemical
Details: 0.1 μg/mL recombinant PDE4B2; preincubated at 30 C for 30 min; [3H]cyclic AMP 8 nM, stopped after 20 min; yttrium silicate SPA beads; read-out: PDE4B2 pIC50 (converted)
Procedure, shortened: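 Compounds preincubated 30 min at 30 C with 0.1 μg/mL recombinant PDE4B2 in 50 mM HEPES pH 7.5, 8.3 mM MgCl2, 1.7 mM EGTA, 0.01% Brij 35.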

recombinant Human Phosphodiesterase B2 (PDE4B2), sequence (Q07343 1-564 isoform Q07343-2): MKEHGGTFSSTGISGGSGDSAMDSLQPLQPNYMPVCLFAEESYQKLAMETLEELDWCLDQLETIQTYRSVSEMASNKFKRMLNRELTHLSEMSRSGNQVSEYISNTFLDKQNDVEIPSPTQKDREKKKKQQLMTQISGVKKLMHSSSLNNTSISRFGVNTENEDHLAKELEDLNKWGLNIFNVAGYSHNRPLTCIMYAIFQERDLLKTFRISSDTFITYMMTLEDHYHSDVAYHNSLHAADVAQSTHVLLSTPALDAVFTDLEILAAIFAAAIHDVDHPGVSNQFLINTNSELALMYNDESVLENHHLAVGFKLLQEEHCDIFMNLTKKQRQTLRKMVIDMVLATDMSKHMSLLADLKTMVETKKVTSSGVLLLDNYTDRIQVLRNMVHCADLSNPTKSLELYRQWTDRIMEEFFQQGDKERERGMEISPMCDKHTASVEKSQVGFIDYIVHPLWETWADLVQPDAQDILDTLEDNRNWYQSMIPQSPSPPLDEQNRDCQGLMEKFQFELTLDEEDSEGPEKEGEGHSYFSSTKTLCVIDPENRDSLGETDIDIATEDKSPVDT

SMILES | IC50
O=C(N[C@H]1CC[C@@H](NC(=O)c2cc(F)cnc2Oc2cccc(-c3ccc(CCCN4CCNCC4)cc3)c2)CC1)c1cc(C2CC2)n[nH]1 [Example 173, N-((1s,4s)-4-(3-Cyclopropyl-1H-pyrazole-5-carboxamido)cyclohexyl)-5-fluoro-2-(4′-(3-(piperazin-1-yl)propyl)biphenyl-3-yloxy)nicotinamide] | 0.0398 nM
Cc1cc(C)n2ncc(C(=O)N[C@H]3CC[C@@H](NC(=O)c4cc(F)cnc4Oc4cccc(-c5ccc(CN6C[C@@H](C)N[C@@H](C)C6)cc5CN5CCSCC5)c4)CC3)c2n1 [Example 193, N-((1s,4s)-4-(2-(4′-(((3S,5R)-3,5-dimethylpiperazin-1-yl)methyl)-2′-(thiomorpholinomethyl)biphenyl-3-yloxy)-5-fluoronicotinamido)cyclohexyl)-5,7-dimethylpyrazolo[1,5-a]pyrimidine-3-carboxamide] | 0.0251 nM
C[C@@H]1CN(CCCc2cccc(-c3cccc(Oc4ncc(F)cc4C(=O)N[C@H]4CC[C@@H](NC(=O)c5cc6n(n5)CCCC6)CC4)c3)c2)C[C@H](C)N1 [Example 174, N-((1s,4s)-4-(2-(3′-(3-((3S,5R)-3,5-Dimethylpiperazin-1-yl)propyl)biphenyl-3-yloxy)-5-fluoronicotinamido)cyclohexyl)-4,5,6,7-tetrahydropyrazolo[1,5-a]pyridine-2-carboxamide] | 0.1 nM
Cc1cccc2nc(C(=O)N[C@H]3CC[C@@H](NC(=O)c4cc(F)cnc4Oc4cccc(-c5ccc(CN6CCCN(C)CC6)cc5)c4)CC3)cn12 [Example 64, N-((1s,4s)-4-(5-fluoro-2-(4′-((4-methyl-1,4-diazepan-1-yl)methyl)biphenyl-3-yloxy)nicotinamido)cyclohexyl)-5-methylimidazo[1,2-a]pyridine-2-carboxamide] | 0.126 nM
Cc1cccc(C(=O)N[C@H]2CC[C@@H](NC(=O)c3cc(F)cnc3Oc3cccc(-c4ccc(O)cc4CN(C)C)c3)CC2)n1 [Example 10, N-((1s,4s)-4-(2-(2′-((dimethylamino)methyl)-4′-hydroxybiphenyl-3-yloxy)-5-fluoronicotinamido)cyclohexyl)-6-methylpicolinamide] | 0.0316 nM
Cc1cccc(C(=O)N[C@H]2CC[C@@H](NC(=O)c3cc(F)cnc3Oc3cccc(-c4ccc(O)cc4CN4CCCOCC4)c3)CC2)n1 [Example 14, N-((1s,4s)-4-(2-(2′-((1,4-oxazepan-4-yl)methyl)-4′-hydroxybiphenyl-3-yloxy)-5-fluoronicotinamido)cyclohexyl)-6-methylpicolinamide] | 0.02 nM
Cc1cc(C(=O)N[C@H]2CC[C@@H](NC(=O)c3cc(F)cnc3Oc3cccc(-c4ccc(CCCN5CCN(C)CC5)cc4)c3)CC2)nn1C [Example 80, N-((1s,4s)-4-(1,5-dimethyl-1H-pyrazole-3-carboxamido)cyclohexyl)-5-fluoro-2-(4′-(3-(4-methylpiperazin-1-yl)propyl)biphenyl-3-yloxy)nicotinamide] | 0.0398 nM
Cc1cc(C(=O)N[C@H]2CC[C@@H](NC(=O)c3cc(F)cnc3Oc3cccc(-c4ccc(CCCN5CCNCC5)cc4)c3)CC2)nn1C [Example 130, N-((1s,4s)-4-(1,5-dimethyl-1H-pyrazole-3-carboxamido)cyclohexyl)-5-fluoro-2-(4′-(3-(piperazin-1-yl)propyl)biphenyl-3-yloxy)nicotinamide] | 0.0316 nM
Cc1cc(C(=O)N[C@H]2CC[C@@H](NC(=O)c3cc(F)cnc3Oc3cccc(-c4ccc(CCCN5CCNCC5)cc4)c3)CC2)n[nH]1 [Example 157, 5-Fluoro-N-((1s,4s)-4-(5-methyl-1H-pyrazole-3-carboxamido)cyclohexyl)-2-(4′-(3-(piperazin-1-yl)propyl)biphenyl-3-yloxy)nicotinamide] | 0.0794 nM
Cc1cccc2nc(C(=O)N[C@H]3CC[C@@H](NC(=O)c4cc(F)cnc4Oc4cccc(-c5ccc(CN6C[C@@H](C)N[C@@H](C)C6)c(O)c5)c4)CC3)cn12 [Example 96, N-((1s,4s)-4-(2-(4′-(((3S,5R)-3,5-dimethylpiperazin-1-yl)methyl)-3′-hydroxybiphenyl-3-yloxy)-5-fluoronicotinamido)cyclohexyl)-5-methylimidazo[1,2-a]pyridine-2-carboxamide] | 0.2 nM
Cc1cc(C(=O)N[C@H]2CC[C@@H](NC(=O)c3cc(F)cnc3Oc3cccc(-c4ccc(CCN5C[C@@H](C)N[C@@H](C)C5)cc4)c3)CC2)nn1C [Example 82, N-((1s,4s)-4-(1,5-dimethyl-1H-pyrazole-3-carboxamido)cyclohexyl)-2-(4′-(2-((3S,5R)-3,5-dimethylpiperazin-1-yl)ethyl)biphenyl-3-yloxy)-5-fluoronicotinamide] | 0.02 nM
C[C@@H]1CN(CCCc2ccc(-c3cccc(Oc4ncc(F)cc4C(=O)N[C@H]4CC[C@@H](NC(=O)c5ccn(C)n5)CC4)c3)cc2)C[C@H](C)N1 [Example 165, 2-(4′-(3-((3S,5R)-3,5-Dimethylpiperazin-1-yl)propyl)biphenyl-3-yloxy)-5-fluoro-N-((1s,4s)-4-(1-methyl-1H-pyrazole-3-carboxamido)cyclohexyl)nicotinamide] | 0.0631 nM
Cc1cccc2nc(C(=O)N[C@H]3CC[C@@H](NC(=O)c4cc(F)cnc4Oc4cccc(-c5ccc(CN6CCCC6)cc5)c4)CC3)cn12 [Example 50, N-((1s,4s)-4-(5-fluoro-2-(4′-(pyrrolidin-1-ylmethyl)biphenyl-3-yloxy)nicotinamido)cyclohexyl)-5-methylimidazo[1,2-a]pyridine-2-carboxamide] | 0.316 nM
Cc1nc(CN[C@H]2CC[C@@H](NC(=O)c3cc(F)cnc3Oc3cccc(-c4ccc(O)cc4CN4CCOCC4)c3)CC2)cs1 [Example 5, 5-fluoro-2-(4′-hydroxy-2′-(morpholinomethyl)biphenyl-3-yloxy)-N-((1s,4s)-4-((2-methylthiazol-4-yl)methylamino)cyclohexyl)nicotinamide] | 5.01 nM
